# From US6613734B2, “Peptides-containing liposomal surfactants” (The Scripps Research Institute, priority 1988, dated 2003)
# Values joined by “and” are separate entries in the source; they are usually repeats but may differ in a detail not shown here. Equal values may be shown once. Marks after values point to notes of the source that are not given here.
# Legend:
# [1] = pulsating bubble technique ("bubble assay" of Enhorning, Enhorning Surfactometer); assay type: physicochemical; settings: peptide 10% by weight of PL, 37° C., negative pressure, mean of 3; for Pressure Gradient 15″: 15 seconds; for Pressure Gradient 1′: 1 minute; for Pressure Gradient 5′: 5 minutes
# Procedure: Measurements of surface pressure across an air-liquid interface (expressed in negative cm of H2O pressure) at minimal (γmin) bubble radius were determined at various times using the pulsating bubble technique described by Enhorning, J. Appl. Physiol. 43: 198-203 (1977).
# Briefly, the Enhorning Surfactometer (Surfactometer International, Toronto, Ontario) measures the pressure gradient (ΔP) across a liquid-air interface of a bubble that pulsates at a rate of 20 cycles/min between a maximal (0.55 mm) and minimal (0.4 mm) radius. The bubble, formed in a 37° C., water-enclosed, 20-μl sample chamber, is monitored through a microscopic optic while the pressure changes are recorded on a strip chart recorder calibrated for 0 and −2 cm H2O.
# Each of the surfactants identified in Table 5 was assayed for surfactant activity as evidenced by their ability to reduce surface tension in vitro using the “bubble assay” of Enhorning as described above.
# After admixture with solvent, each peptide was admixed with phospholipids (PL), DPPC:PG, 3:1, in chloroform in a glass tube so that the amount of polypeptide added equaled one-tenth (10% by. weight) of the amount of PL added, to form a surfactant according to either method A, B or C.
# Each of the surfactants was then assayed for surfactant activity as evidenced by their ability to reduce surface tension in vitro in the bubble assay performed as described above. The pressure gradient (ΔP) is a measure of surfactant activity in the polypeptide-PL third admixture which was determined using an Enhorning Surfactometer as described above. Measurements were obtained at time points of 15 seconds (15″), 1 minute (1′) and 5 minutes (5′) and are expressed as a mean of three independent measurements of the indicated polypeptide-PL admixture.
# fetal rabbit lung [2] = assay: dynamic compliance, fetal rabbit model; assay type: in vivo; settings: single animal per line
# Procedure: A subject polypeptide was first admixed with solvent as described in Example 3. […]
# Surfactant was instilled in rabbit fetal lung by injection into the trachea from a single syringe of the following three components such that the components exit the syringe in the following order: (1) 0.05 ml air; (2) 0.1 ml of a synthetic surfactant prepared in Example 4A or either 2 mg of PL or 2 mg of native surfactant; and (3) 0.1 ml air.
# From one syringe, a 0.1 ml aliquot of synthetic surfactant prepared as described in Example 4A (or 2 mg of NS or of PL), was instilled into the rabbit trachea as described above, followed by injection of 0.05 ml lactated Ringer's Solution and 0.2 ml air from a second syringe.
# From one syringe, 0.1 ml of a synthetic surfactant prepared as described in Example 4A (or 2 mg of NS or of PL), 0.15 ml air, 0.1 ml saline, and 0.3 ml air were injected into the trachea as described above. Two subsequent aliquots of 0.3 ml air were given.
# The surfactant activity of exemplary polypeptides of this invention was studied using the methods described in detail previously by Revak, et al, Am. Rev. Respir. Dis. 134: […] (1986), with the exceptions noted hereinbelow.
# Twenty-seven day gestation fetal rabbits were delivered by hysterotomy and immediately injected with 0.05 ml Norcuron (Organon, Inc., N.J.) to prevent spontaneous breathing. The fetal rabbits were then weighed and a small cannula was inserted into the trachea by tracheotomy surfactant prepared as described above was then instilled into the fetal rabbit lung by one of the above instillation protocols.
# Following instillation the rabbit was placed in a specially designed plethysmograph (containing a Celesco transducer) connected to a ventilator (Baby Bird, Baby Bird Corp., Palm Springs, Calif.) and the instilled lung was ventilated at a rate of 30 cycles per minute with a peak inspiratory pressure of 25 cm H2O, a positive end expiratory pressure of 4 cm H2O and an inspiratory time of 0.5 seconds. In some studies, dynamic compliance measurements were made at various times throughout the ventilation procedure. In others, static compliance measurements were made following ventilation.
# Using the plethysmograph, dynamic compliance measurements were made at various times throughout a 60 minute ventilation period. […] Compliance was calculated by the formula below. [formula]
# The above equation was solved with a multiple linear regression for C and R. The compliance (C) represents the elastic nature of the lungs and the resistance (R) represents the pressure necessary to overcome the resistance to the flow of gas into and out of the lungs.
# [3] = observation whether peptide/solvent admixture formed a solution or a suspension; assay type: physicochemical
# Procedure: Each polypeptide was admixed with the indicated solvent at a concentration of 2.5 mg of polypeptide per ml of solvent. […] Those admixtures forming a suspension were further admixed by water bath sonication for 10 seconds to form a very fine suspension, sufficient for pipetting using glass pipettes.
# fetal rabbit lung [4] = assay: static compliance, fetal rabbit model; assay type: in vivo; settings: fetal rabbits, after 30 minutes of ventilation, instillation protocols 1 and 5 (FIGS. 2 and 3)
# Procedure: A subject polypeptide was first admixed with solvent as described in Example 3. The resulting admixture was further admixed with phospholipid (PL) so that the amount of polypeptide added was either 3%, 7% or 10% by weight of the amount of PL added as indicated below.
# Fetal rabbits were treated by injection into the trachea of a 0.1 ml solution that contained either a synthetic surfactant prepared in Example 4A or either 2 mg of native surfactant prepared as described in Example 1 of U.S. Pat. No. 5,260,273 (incorporated by reference herein) or 2 mg PL.
# Fetal rabbits were treated by injection into the trachea from a single syringe the following four components such that the four components exit the syringe upon injection in the order listed: (1) 0.2 ml solution that contains either a synthetic surfactant prepared in Example 4A or either 4 mg of native surfactant, or 4 mg PL; (2) a 0.15 ml volume of air; (3) a 0.1 ml normal saline solution; and (4) a 0.3 ml volume of air. The above injection was then repeated 15 minutes after the first injection. […]
# Static compliance measurements were made after 30 minutes of ventilation. […] The volume of air required to reach static pressures of 5, 10, 15, 20, 25 and 30 cm H2O was measured during both inflation and deflation phases to generate static pressure to volume curves as a measure of static compliance.
Sequence,Pressure Gradient 15″ ([1]; PL (DPPC:PG 3:1) 10 mg/ml),Pressure Gradient 1′ ([1]; PL (DPPC:PG 3:1) 10 mg/ml),Pressure Gradient 5′ ([1]; PL (DPPC:PG 3:1) 10 mg/ml),"Dynamic Compliance, 10 minutes after surfactant instillation (fetal rabbit lung [2]; 10% peptide to PL, Protocol 4)","Dynamic Compliance, 20 minutes after surfactant instillation (fetal rabbit lung [2]; 10% peptide to PL, Protocol 4)","Dynamic Compliance, 30 minutes after surfactant instillation (fetal rabbit lung [2]; 10% peptide to PL, Protocol 4)","Dynamic Compliance, 40 minutes after surfactant instillation (fetal rabbit lung [2]; 10% peptide to PL, Protocol 4)","Dynamic Compliance, 50 minutes after surfactant instillation (fetal rabbit lung [2]; 10% peptide to PL, Protocol 4)","Dynamic Compliance, 60 minutes after surfactant instillation (fetal rabbit lung [2]; 10% peptide to PL, Protocol 4)",other results
RVVPLVAGGICQCLAERYSVILLDTLLGRMLPQLVCRLVLRCSMDD [p36-81],0.90 cm of H2O,0.87 cm of H2O,0.79 cm of H2O,–,–,–,–,–,–,"Dynamic Compliance, 30 minutes after surfactant instillation (fetal rabbit lung [2]; 5% peptide to PL, Protocol 3): 255 ml air/cm H2O (g body weight × 10^6) and 245 ml air/cm H2O (g body weight × 10^6); Dynamic Compliance, 60 minutes after surfactant instillation (fetal rabbit lung [2]; 5% peptide to PL, Protocol 3): 146* ml air/cm H2O (g body weight × 10^6) and 291 ml air/cm H2O (g body weight × 10^6); Dynamic Compliance, 30 minutes after surfactant instillation (fetal rabbit lung [2]; 10% peptide to PL, Protocol 2): 154 ml air/cm H2O (g body weight × 10^6) and 252 ml air/cm H2O (g body weight × 10^6); Dynamic Compliance, 60 minutes after surfactant instillation (fetal rabbit lung [2]; 10% peptide to PL, Protocol 2): 1,162 ml air/cm H2O (g body weight × 10^6) and 623 ml air/cm H2O (g body weight × 10^6); Admixture Formed ([3]; 2.5 mg of polypeptide per ml of solvent, solvent 50% chloroform 0% methanol): suspension"
ERYSVILLDTLLGRMLPQLVCRLVLR [p51-76],0.99 cm of H2O,0.91 cm of H2O,0.42 cm of H2O,33 ml air/cm H2O (g body weight × 10^6) and 10 ml air/cm H2O (g body weight × 10^6) and 15 ml air/cm H2O (g body weight × 10^6),22 ml air/cm H2O (g body weight × 10^6) and 11 ml air/cm H2O (g body weight × 10^6) and 36 ml air/cm H2O (g body weight × 10^6),56 ml air/cm H2O (g body weight × 10^6) and 186 ml air/cm H2O (g body weight × 10^6) and 109 ml air/cm H2O (g body weight × 10^6),87 ml air/cm H2O (g body weight × 10^6) and 358 ml air/cm H2O (g body weight × 10^6) and 241 ml air/cm H2O (g body weight × 10^6),124 ml air/cm H2O (g body weight × 10^6) and 141 ml air/cm H2O (g body weight × 10^6) and 264 ml air/cm H2O (g body weight × 10^6),85 ml air/cm H2O (g body weight × 10^6) and 144* ml air/cm H2O (g body weight × 10^6) and 301 ml air/cm H2O (g body weight × 10^6),"Admixture Formed ([3]; 2.5 mg of polypeptide per ml of solvent, solvent 37% chloroform 63% methanol): solution"
FPIPLPYCWLCRALI [p1-15],–,–,–,–,–,–,–,–,–,"Pressure Gradient 15″ ([1]; PL (DPPC:PG 3:1) 4 mg/ml): 0.94 cm of H2O; Pressure Gradient 1′ ([1]; PL (DPPC:PG 3:1) 4 mg/ml): 0.82 cm of H2O; Pressure Gradient 5′ ([1]; PL (DPPC:PG 3:1) 4 mg/ml): 0.48 cm of H2O; Admixture Formed ([3]; 2.5 μg of peptide per μl of solvent, solvent n-propyl alcohol): suspension; Admixture Formed ([3]; 2.5 mg of polypeptide per ml of solvent, solvent N-propanol): suspension; lung compliance measured by static compliance, compared with PL alone (fetal rabbit lung [4]): did not produce improved lung compliance over PL alone"
ERYSVILLDTLLGRMLPQLVCRLVLRCSMD [p51-80],0.92 cm of H2O,0.89 cm of H2O,0.48 cm of H2O,17 ml air/cm H2O (g body weight × 10^6) and 76 ml air/cm H2O (g body weight × 10^6) and 23 ml air/cm H2O (g body weight × 10^6),41 ml air/cm H2O (g body weight × 10^6) and 94 ml air/cm H2O (g body weight × 10^6) and 71 ml air/cm H2O (g body weight × 10^6),52 ml air/cm H2O (g body weight × 10^6) and 149 ml air/cm H2O (g body weight × 10^6) and 130 ml air/cm H2O (g body weight × 10^6),78 ml air/cm H2O (g body weight × 10^6) and 149 ml air/cm H2O (g body weight × 10^6) and 156 ml air/cm H2O (g body weight × 10^6),99 ml air/cm H2O (g body weight × 10^6) and 217 ml air/cm H2O (g body weight × 10^6) and 182 ml air/cm H2O (g body weight × 10^6),208 ml air/cm H2O (g body weight × 10^6) and 308 ml air/cm H2O (g body weight × 10^6) and 109* ml air/cm H2O (g body weight × 10^6),"Admixture Formed ([3]; 2.5 mg of polypeptide per ml of solvent, solvent 45% chloroform 55% methanol): solution"
